Test results reported in patent US20150239831A1, “INHIBITORS OF CENTRAL NERVOUS SYSTEM VASOACTIVE INHIBITORY PEPTIDE RECEPTOR 2” (The Trustees Of Columbia University In The City Of New York, priority 2012, published 2015).

Molecular target: T1, VIPR2 (Homo sapiens, UniProt P41587)
T1 sequence (P41587 24-438): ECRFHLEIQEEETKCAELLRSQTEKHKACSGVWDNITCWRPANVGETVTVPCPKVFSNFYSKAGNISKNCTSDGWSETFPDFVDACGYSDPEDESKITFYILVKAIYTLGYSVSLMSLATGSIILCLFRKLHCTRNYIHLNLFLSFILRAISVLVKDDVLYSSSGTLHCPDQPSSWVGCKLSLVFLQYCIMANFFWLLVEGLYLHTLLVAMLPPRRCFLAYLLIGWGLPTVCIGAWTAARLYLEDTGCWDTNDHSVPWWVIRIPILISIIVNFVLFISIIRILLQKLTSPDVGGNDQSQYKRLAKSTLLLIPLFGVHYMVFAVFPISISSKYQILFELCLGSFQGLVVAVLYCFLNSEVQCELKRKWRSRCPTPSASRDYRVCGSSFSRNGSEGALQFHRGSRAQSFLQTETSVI
Assay: Inhibition of VIP-induced β-arrestin recruitment (% Activity Arrestin)
Format: cell-based
Design: expressed in transfected cells; host or cells: HEK293 cells transfected with VIPR2 in pCDNA3.1 (as described)
Details: Batch 1
Outline: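 HEK293 cells stably expressing β-arrestin2–β-gal EA, transiently transfected with ProLink-tagged hVIPR2, plated overnight; inhibitor added for 2 h at 37 °C, 5% CO2. Receptor–arrestin complementation read by chemiluminescence after 5 min–1 h at room temperature; inhibition of VIP-induced recruitment reported as % activity.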

SMILES	inhibition at 0.5 µM	inhibition at 1 µM	inhibition at 5 µM
N#Cc1ccc(S(=O)(=O)NC[C@@H](O)C[C@@H](Cc2ccccc2)C(=O)N[C@H]2c3ccccc3C[C@H]2O)cc1 [C]	38.5%	59.5%	90.4%
CC(C)c1ccc(S(=O)(=O)NC[C@@H](O)C[C@@H](Cc2ccccc2)C(=O)N[C@H]2c3ccccc3C[C@H]2O)cc1 [Compound A10]	31.5%	63.1%	87.7%
O=C(N[C@H]1c2ccccc2C[C@H]1O)[C@H](Cc1ccccc1)C[C@H](O)CNS(=O)(=O)c1ccc(C(F)(F)F)cc1 [F]	58.1%	83%	92.9%

Other lines, results leading:

inhibition at 0.5 µM	inhibition at 1 µM	inhibition at 5 µM	SMILES
54.1%	76.7%	89.4%	COc1ccc(S(=O)(=O)NC[C@@H](O)C[C@@H](Cc2ccccc2)C(=O)N[C@H]2c3ccccc3C[C@H]2O)cc1 [E]
62.8%	80.4%	90%	Cc1ccc(S(=O)(=O)NC[C@@H](O)C[C@@H](Cc2ccccc2)C(=O)N[C@H]2c3ccccc3C[C@H]2O)cc1 [I]
58.3%	78%	88.7%	CC(=O)c1ccc(S(=O)(=O)NC[C@@H](O)C[C@@H](Cc2ccccc2)C(=O)N[C@H]2c3ccccc3C[C@H]2O)cc1 [K]
